Test system: Zm-SHC-1 (squalene-hopene cyclase, SEQ ID NO: 2)
Experiment: Activity determination of the recombinant cyclase from E. coli LU15568 (conversion of homofarnesylic acid into sclareolide, GC)
Assay type: biochemical, Zymomonas mobilis
Conditions: E. coli LU15568 homogenate, pH 5.0, 37° C., 24 h, GC analysis
Protocol: Inoculated from a suitable 2 ml preculture, E. coli LU15568 was grown for 16 h at 37° C. in 20 ml LB-Amp/Spec/Cm ([…]), 0.1 mM IPTG, 0.5 g/l rhamnose in 100 ml Erlenmeyer flasks (with baffles), centrifuged at 5000*g/10 min and stored at 4° C. Protein extract was prepared by suspending the cell pellet in 15 ml disruption buffer (0.2 M Tris/HCl, 0.5 M EDTA, pH 8.0), 375 U benzonase (for example Novagen, 25 U/μL), 40 μL PMSF (100 mM, dissolved in i-PropOH), 0.8 g sucrose and approx. 0.5 mg of lysozyme. The reaction mixture was mixed and incubated on ice for 30 min. Thereafter, the mixture was frozen at −20° C.
After the reaction mixture had defrosted, it was made up to approx. 40 ml with distilled water and again incubated on ice for 30 min. […]
The conversion of homofarnesylic acid (1b) into sclareolide (3) can be determined with the following GC system:
• 0 min: 100° C. • 5° C./min to 200° C. • After 5 min: 30° C./min to 320° C. • thereafter constant • Duration of the method: 30 min Injector temperature: 280° C. Retention times (RT): • Homofarnesylic acid: peak 1 at 11.7 min, peak 2 at 12.1 min; • Sclareolide: approx. 13.5 min A calibration series, with the aid of which the concentration of unknown samples was determined, is established using authentic material (Sigma, catalog No.: 358002).

CC(C)=CCC/C(C)=C/CC/C(C)=C/CC(=O)O [Homofarnesylic acid, (3E,7E)-4,8,12-trimethyltrideca-3,7,11-trienoic acid]
conversion rate from the E,E isomer (20 mM homofarnesylic acid (E,E 74.93%)): 82.7%
conversion rate in total (20 mM homofarnesylic acid, sodium citrate buffer): 74.5%
